Measurements published in US20250074891A1 (Anaxis Pharma Pty Ltd., priority 2021, published 2025).

Key:
Conditions in all cases: Table 35
RIP1 = RIP1 (Homo sapiens (Human), UniProt Q13546); assay: KINOMEscan binding assay, RIP1
MLKL (full length) = MLKL (full length) (Homo sapiens (Human), UniProt Q8NB16); assay: KINOMEscan binding assay, MLKL (full length)
Experimental: (§1) Kinase assays. For most assays, kinase-tagged T7 phage strains were grown in parallel in 24-well blocks in an E. coli host derived from the BL21 strain. E. coli were grown to log-phase and infected with T7 phage from a frozen stock (multiplicity of infection=0.4) and incubated with shaking at 32° C. until lysis (90-150 minutes).
(§2) The Hill Slope was set to −1.

RIP3 = RIP3 (Homo sapiens (Human), UniProt Q9Y572); assay: KINOMEscan binding assay, RIP3
Experimental: as §1, §2

Sequence of MLKL (full length) (Q8NB16 whole entry): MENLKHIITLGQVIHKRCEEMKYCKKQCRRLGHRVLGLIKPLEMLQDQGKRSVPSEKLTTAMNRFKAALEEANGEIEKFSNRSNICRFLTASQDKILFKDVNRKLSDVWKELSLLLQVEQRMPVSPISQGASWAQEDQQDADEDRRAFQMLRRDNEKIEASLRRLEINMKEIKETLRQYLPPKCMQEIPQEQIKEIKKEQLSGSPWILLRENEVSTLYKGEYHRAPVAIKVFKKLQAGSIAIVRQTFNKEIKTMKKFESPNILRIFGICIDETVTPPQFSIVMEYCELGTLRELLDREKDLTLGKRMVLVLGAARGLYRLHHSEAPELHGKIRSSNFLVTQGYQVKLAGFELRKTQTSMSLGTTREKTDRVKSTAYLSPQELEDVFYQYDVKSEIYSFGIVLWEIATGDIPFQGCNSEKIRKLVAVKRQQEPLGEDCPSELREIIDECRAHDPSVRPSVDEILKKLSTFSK
Sequence of RIP3 (Q9Y572 whole entry): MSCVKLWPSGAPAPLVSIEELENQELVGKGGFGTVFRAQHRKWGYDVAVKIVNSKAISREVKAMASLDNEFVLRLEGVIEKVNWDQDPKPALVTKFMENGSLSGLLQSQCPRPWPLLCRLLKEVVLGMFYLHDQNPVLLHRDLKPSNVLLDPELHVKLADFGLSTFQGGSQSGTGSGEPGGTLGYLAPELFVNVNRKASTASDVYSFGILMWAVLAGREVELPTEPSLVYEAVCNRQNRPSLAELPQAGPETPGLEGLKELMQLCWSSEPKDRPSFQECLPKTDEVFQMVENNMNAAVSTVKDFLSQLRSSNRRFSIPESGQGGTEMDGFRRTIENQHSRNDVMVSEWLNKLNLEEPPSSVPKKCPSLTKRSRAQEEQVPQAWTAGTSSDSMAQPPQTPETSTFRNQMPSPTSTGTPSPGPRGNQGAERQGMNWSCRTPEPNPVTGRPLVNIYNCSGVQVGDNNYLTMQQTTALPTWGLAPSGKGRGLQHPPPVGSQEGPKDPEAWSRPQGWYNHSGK
Sequence of RIP1 (Q13546 whole entry): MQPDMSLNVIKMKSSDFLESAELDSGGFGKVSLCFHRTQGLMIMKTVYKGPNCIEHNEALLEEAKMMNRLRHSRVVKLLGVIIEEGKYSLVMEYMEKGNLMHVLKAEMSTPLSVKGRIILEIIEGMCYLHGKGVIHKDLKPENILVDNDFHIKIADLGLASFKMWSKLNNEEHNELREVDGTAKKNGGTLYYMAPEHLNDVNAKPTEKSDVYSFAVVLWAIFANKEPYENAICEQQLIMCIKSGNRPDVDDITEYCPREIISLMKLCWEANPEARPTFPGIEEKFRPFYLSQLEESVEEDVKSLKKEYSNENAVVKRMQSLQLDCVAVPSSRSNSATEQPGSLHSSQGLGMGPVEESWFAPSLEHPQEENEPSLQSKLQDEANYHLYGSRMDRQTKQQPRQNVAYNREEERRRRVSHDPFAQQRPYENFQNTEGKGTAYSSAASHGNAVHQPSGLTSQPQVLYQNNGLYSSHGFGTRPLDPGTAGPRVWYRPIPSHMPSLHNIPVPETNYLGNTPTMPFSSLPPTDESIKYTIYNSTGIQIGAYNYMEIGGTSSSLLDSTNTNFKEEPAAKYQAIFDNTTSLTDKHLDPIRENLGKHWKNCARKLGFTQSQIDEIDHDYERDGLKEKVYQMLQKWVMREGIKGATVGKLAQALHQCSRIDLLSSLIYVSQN

Kd (RIP1) [µM]	Kd (MLKL (full length)) [µM]	Kd (RIP3) [µM]	Structure (SMILES)
> 30	< 0.01	> 30	Cc1cnc(Nc2[nH]nc(-c3ccc(NS(=O)(=O)CC(F)(F)F)c(OCc4ccc(Cl)c(F)c4)c3)c2C(N)=O)cn1 [Compound 146, 3-(3-((4-chloro-3-fluorobenzyl)oxy)-4-((2,2,2-trifluoroethyl)sulfonamido)phenyl)-5-((5-methylpyrazin-2-yl)amino)-1H-pyrazole-4-carboxamide]
> 30	< 0.01	> 30	NC(=O)c1c(-c2ccc(NS(=O)(=O)C(F)F)cc2)n[nH]c1Nc1ccc(C(F)(F)F)cn1 [Compound 145, 3-(4-((difluoromethyl)sulfonamido)phenyl)-5-((5-(trifluoromethyl)pyridine-2-yl)amino)-1H-pyrazole-4-carboxamide]
> 30	< 0.01	> 30	NC(=O)c1c(-c2ccc(NS(=O)(=O)C(F)F)c(OCc3ncco3)c2)n[nH]c1Nc1cnccn1 [Compound 313, 3-(4-((difluoromethyl)sulfonamido)-3-(oxazol-2-ylmethoxy)phenyl)-5-(pyrazin-2-ylamino)-1H-pyrazole-4-carboxamide]
> 30	< 0.01	> 30	NC(=O)c1c(-c2ccc(NS(=O)(=O)CC(F)(F)F)c(OCc3ccc(Cl)cn3)c2)n[nH]c1Nc1cnccn1 [Compound 262, 3-{3-[(5-chloropyridin-2-yl)methoxy]-4-(2,2,2-trifluoroethane-sulfonamido)phenyl}-5-[(pyrazin-2-yl)amino]-1H-pyrazole-4-carboxamide]
> 30	< 0.01	> 30	CCS(=O)(=O)Nc1ccc(-c2n[nH]c(Nc3ccnc(OCC(F)F)c3)c2C(N)=O)cc1 [Compound 106, 5-((2-(2,2-difluoroethoxy)pyridin-4-yl)amino)-3-(4-(ethylsulfonamido)phenyl)-1H-pyrazole-4-carboxamide]
> 30	< 0.01	> 30	NC(=O)c1c(-c2ccc(NS(=O)(=O)C(F)(F)F)cc2)n[nH]c1Nc1cccc(C(F)(F)F)n1 [Compound 205]
> 30	< 0.01	> 30	CCS(=O)(=O)Nc1ccc(-c2n[nH]c(Nc3cnccn3)c2C(N)=O)cc1O[C@@H](C)c1ccccn1 [Compound 230, 3-{4-ethanesulfonamido-3-[(1S)-1-(pyridin-2-yl)ethoxy]phenyl}-5-[(pyrazin-2-yl)amino]-1H-pyrazole-4-carboxamide]
> 30	< 0.01	> 30	NC(=O)c1c(-c2ccc(NS(=O)(=O)CC(F)(F)F)c(Oc3cccc(F)c3)c2)n[nH]c1Nc1cnccn1 [Compound 167, 3-(3-(3-fluorophenoxy)-4-((2,2,2-trifluoroethyl)sulfonamido)phenyl)-5-(pyrazin-2-ylamino)-1H-pyrazole-4-carboxamide]
> 30	< 0.01	> 30	CCS(=O)(=O)Nc1ccc(-c2n[nH]c(Nc3ccccn3)c2C(N)=O)cc1OCc1ccc(F)cn1 [Compound 241, 3-{4-ethanesulfonamido-3-[(5-fluoropyridin-2-yl)methoxy]phenyl}-5-[(pyridin-2-yl)amino]-1H-pyrazole-4-carboxamide]
> 30	< 0.01	> 30	C[C@H](Oc1cc(-c2n[nH]c(Nc3cc(C4CCC4)on3)c2C(N)=O)ccc1NS(=O)(=O)C(F)F)c1ccc(F)cc1 [Compound 281, (S)-5-((5-cyclobutylisoxazol-3-yl)amino)-3-(4-((difluoromethyl)sulfonamido)-3-(1-(4-fluorophenyl)ethoxy)phenyl)-1H-pyrazole-4-carboxamide]
> 30	< 0.01	> 30	CCS(=O)(=O)Nc1ccc(-c2n[nH]c(Nc3cnccn3)c2C(N)=O)cc1OCC1CCCC1 [Compound 40, 3-(3-(cyclopentyl-methoxy)-4-(ethylsulfonamido)phenyl)-5-(pyrazin-2-ylamino)-1H-pyrazole-4-carboxamide]
> 30	< 0.01	> 30	CCS(=O)(=O)Nc1ccc(-c2n[nH]c(Nc3cnc(OC)cn3)c2C(N)=O)cc1OCc1ccc(F)cc1 [Compound 14, 3-(4-(ethylsulfonamido)-3-((4-fluorobenzyl)oxy)phenyl) 5-((5-methoxypyrazin-2-yl)amino)-1H-pyrazole-4-carboxamide]
> 30	< 0.01	> 30	NC(=O)c1c(-c2ccc(NS(=O)(=O)C(F)F)c(OCc3ccc(F)cc3)c2)n[nH]c1Nc1cnccn1 [Compound 202, 3-(4-((difluoromethyl)sulfonamido)-3-((4-fluorobenzyl)oxy)phenyl)-5-(pyrazin-2-ylamino)-1H-pyrazole-4-carboxamide]
> 30	< 0.01	> 30	NC(=O)c1c(-c2ccc(NS(=O)(=O)CC(F)F)c(OCc3ccc(F)cc3)c2)n[nH]c1Nc1cnccn1 [Compound 180, 3-(4-((2,2-difluoroethyl)sulfonamido)-3-((4-fluorobenzyl)oxy)phenyl)-5-(pyrazin-2-ylamino)-1H-pyrazole-4-carboxamide]
> 30	< 0.01	> 30	CCS(=O)(=O)Nc1ccc(-c2n[nH]c(Nc3cnccn3)c2C(N)=O)cc1OCc1ccc(F)cn1 [Compound 156, 3-(4-(ethylsulfonamido)-3-((5-fluoropyridin-2-yl)methoxy)phenyl)-5-(pyrazin-2-ylamino)-1H-pyrazole-4-carboxamide]
> 30	< 0.01	> 30	NC(=O)c1c(-c2ccc(NS(=O)(=O)C(F)F)c(OC(c3ccc(F)cc3)C3CCC3)c2)n[nH]c1Nc1cnccn1 (stereo not drawn) [Compound 236, 3-{3-[cyclobutyl(4-fluorophenyl)methoxy]-4-(difluoromethanesulfonamido)phenyl}-5-[(pyrazin-2-yl)amino]-1H-pyrazole-4-carboxamide]
> 30	< 0.01	> 30	C[C@H](Oc1cc(-c2n[nH]c(Nc3cc(C4CCOC4)on3)c2C(N)=O)ccc1NS(=O)(=O)C(F)F)c1ccc(F)cc1 (stereo partly drawn) [Compound 305, 3-(4-((difluoromethyl)sulfonamido)-3-((S)-1-(4-fluorophenyl)ethoxy)phenyl)-5-((5-(tetrahydrofuran-3-yl)isoxazol-3-yl)amino)-1H-pyrazole-4-carboxamide]
> 30	< 0.01	> 30	NC(=O)c1c(-c2ccc(NS(=O)(=O)C(F)F)c(Oc3ccc(F)cc3)c2)n[nH]c1Nc1cccc(C(F)(F)F)n1 [Compound 147, 3-(4-((difluoromethyl)sulfonamido)-3-(4-fluorophenoxy)phenyl)-5-((6-(trifluoromethyl)pyridine-2-yl)amino)-1H-pyrazole-4-carboxamide]
> 30	< 0.01	> 30	C[C@H](Oc1cc(-c2n[nH]c(Nc3cnccn3)c2C(N)=O)ccc1NS(=O)(=O)CC(F)(F)F)c1ccc(Cl)cc1 [Compound 259, 3-{3-[(1S)-1-(4-chlorophenyl)ethoxy]-4-(2,2,2-trifluoroethane-sulfonamido)phenyl}-5-[(pyrazin-2-yl)amino]-1H-pyrazole-4-carboxamide]
